Where two headings read alike, the source gives them in different places.
Tests used:
[1] = system: cap-dependent translation in rabbit reticulocyte lysate (RRL); conditions: cited from earlier work; for times more potent inhibition than the standard dinucleotide m^7GpppG: pure water without DMSO; for IC50: RRL, water solutions without DMSO, previously determined, read-out: IC50^WATER ± SE
[2] = system: cap-dependent translation; conditions: 1% DMSO solution; cited from earlier work
human eIF4E (heIF4E) = target: T1, human eIF4E (heIF4E) (Homo sapiens, UniProt P06730); assay: Thermal stabilization of heIF4E by differential scanning fluorimetry (DSF); assay type: binding; conditions: 1% DMSO; for Relative Change in Affinity to m^7GMP: DSF appK ratio; for Kd: from ΔTm versus ligand concentration, single site ligand binding model, read-out: appK ± SE (apparent affinity to heIF4E)
T1 construct: The thermal stability of human full-length eIF4E (heIF4E) was analyzed; made in house
Method: The thermal stability of human full-length eIF4E (heIF4E) was analyzed using differential scanning fluorimetry (DSF), similar to that described previously for murine eIF4E [30]. heIF4E was expressed and purified as described earlier. The assay sample (20 μL) contained 5× SYPRO Orange (Sigma Aldrich, St. Louis, MO, USA) and 4 μM of heIF4E (final concentration) in HEPES/KOH with 100 mM KCl, 0.5 mM EDTA, and 1 mM DTT (pH 7.2). The tested compounds, as 10× stocks in 10% DMSO, were added to the final concentration at a range from 1 μM to 200 μM. DMSO at a 1% final concentration was then added to the control reactions without any compounds. […] The melting temperature (Tm) was determined as the minimum of the first negative derivative with the built-in CFX Manager Software (Bio-Rad).

[3] = system: cap-dependent translation in rabbit reticulocyte lysate (RRL); assay: Inhibition of cap-dependent translation of ARCA-capped luciferase mRNA in rabbit reticulocyte lysate (RRL); assay type: biochemical; conditions: for Inhibition Relative to m^7GMP IC50^DMSO (m^7GMP)/ IC50^DMSO (Cap Analogue) / Inhibition Relative to m^7GpppG IC50^DMSO (m^7GpppG)/ IC50^DMSO (Cap Analogue): 1% DMSO; for IC50: ARCA-capped luciferase mRNA, 1% DMSO final concentration, read-out: IC50^DMSO ± SE
Method: To estimate the ability of the newly synthesized double-modified nucleotides to inhibit cap-dependent translation, the […] translation system from rabbit reticulocytes lysate (RRL) was used according to previously described procedures. This procedure was implemented because it mimics the competition between the cap analogue and the mRNA in the all-natural system. Briefly, experiments were performed in a micrococcal nuclease-treated RRL using an in vitro-transcribed, ARCA-capped, β-globin 5′ UTR containing mRNA encoding firefly luciferase to allow for the determination of protein synthesis by luminometry. […] Initially, the compounds were prepared in an aqueous solution containing 10% DMSO, and inhibition was measured at a final concentration of 1% DMSO. Incubations were conducted at several series of inhibitor concentrations in three independent measurement series (Figure 4).
Stock solutions were subsequently used for serial dilutions (in 10% DMSO). […] Experiments of the inhibition of the cap-dependent translation in rabbit reticulocyte lysate (Flexi RRL System, Promega) were performed as previously described. […] Next, 1.25 μL of the tested compound (as a solution in 10% DMSO) and m2^7,3′OGpppG-capped luciferase mRNA (to a final concentration of 5 ng/μL) was added to the reaction, and the translation mixture (12.5 μL final volume) was incubated for an additional 60 min. As a reference, reactions with DMSO (1.25 μL of 10% solution) were prepared. The reactions were stopped by chilling on ice, and the luciferase activity was determined in a Glomax luminometer (Promega). The IC50 values were obtained by fitting to the experimental data a theoretical curve that describes the extent of inhibition as a function of competitive inhibitor (e.g., cap analogue) concentration.

Solubility in water = assay type: physicochemical
[4] = listed as (4-(diOCH3-bn)-tz-CH2)2bn^7GpppG (4)

T1 sequence (P06730 whole entry): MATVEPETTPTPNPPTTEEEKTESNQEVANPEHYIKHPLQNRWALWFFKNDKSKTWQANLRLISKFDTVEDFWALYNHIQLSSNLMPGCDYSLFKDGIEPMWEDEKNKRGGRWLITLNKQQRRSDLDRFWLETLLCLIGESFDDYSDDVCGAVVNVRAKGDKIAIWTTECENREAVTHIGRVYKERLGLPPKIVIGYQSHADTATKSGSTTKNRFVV

| Kd (human eIF4E (heIF4E); DSF) [µM] | Inhibition Relative to m^7GMP IC50^DMSO (m^7GMP)/ IC50^DMSO (Cap Analogue) [3] | Inhibition Relative to m^7GpppG IC50^DMSO (m^7GpppG)/ IC50^DMSO (Cap Analogue) [3] | IC50 [3] [µM] | Compound | IC50 [1] [µM] | also measured |
| --- | --- | --- | --- | --- | --- | --- |
| 13.3 ± 3.45 | 10.67 | 2.47 | 1.8 ± 0.21 | COc1cccc(OC)c1OCCCn1cc(CNc2nc3c(c(=O)[nH]2)[n+](C)cn3[C@@H]2O[C@H](COP(=O)([O-])O)[C@@H](O)[C@H]2O)nn1 [compound 2, (4-(diOCH3-bn)-tz-CH2)2m^7GMP] | 2 ± 0.1 | Relative Change in Affinity to m^7GMP (human eIF4E (heIF4E)): 1.8 |
| 14.7 ± 1.14 | 7.11 | 1.64 | 2.7 ± 0.3 | COc1cccc(OC)c1OCCCn1cc(CNc2nc3c(c(=O)[nH]2)[n+](Cc2ccccc2)cn3[C@@H]2O[C@H](COP(=O)([O-])O)[C@@H](O)[C@H]2O)nn1 [compound 3] | – | Relative Change in Affinity to m^7GMP (human eIF4E (heIF4E)): 1.7; solubility in water (Solubility in water): only partially soluble in water |
| 3.58 ± 1.09 | 80.08 | ~18 | 0.24 ± 0.02 | COc1cccc(OC)c1OCCCn1cc(CNc2nc3c(c(=O)[nH]2)[n+](Cc2ccccc2)cn3[C@@H]2O[C@H](COP(=O)(O)OP(=O)([O-])OP(=O)(O)OC[C@H]3O[C@@H](n4cnc5c(=O)[nH]c(N)nc54)[C@H](O)[C@@H]3O)[C@@H](O)[C@H]2O)nn1 [compound 4] | – | Relative Change in Affinity to m^7GMP (human eIF4E (heIF4E); [4]): 6.8; ΔTm of heIF4E (human eIF4E (heIF4E); DSF, below a 10 μM final concentration): ~ 10 °C; Inhibition Relative to m^7GpppG IC50^DMSO (m^7GpppG)/ IC50^DMSO (Cap Analogue) [3, 4]: 18.54 |

Second part, the compound before the results:

| Compound | Kd (human eIF4E (heIF4E); DSF) [µM] | Inhibition Relative to m^7GMP IC50^DMSO (m^7GMP)/ IC50^DMSO (Cap Analogue) [3] | Inhibition Relative to m^7GpppG IC50^DMSO (m^7GpppG)/ IC50^DMSO (Cap Analogue) [3] | IC50 [3] [µM] | IC50 [1] [µM] | also measured |
| --- | --- | --- | --- | --- | --- | --- |
| Nc1nc2c(ncn2[C@@H]2O[C@H](COP(=O)(O)OP(=O)(O)OP(=O)(O)OC[C@H]3O[C@@H](n4c[n+](Cc5ccccc5)c5c(=O)[nH]c(N)nc54)[C@H](O)[C@@H]3O)[C@@H](O)[C@H]2O)c(=O)[nH]1 [bn^7GpppG] | – | – | – | – | – | times more potent inhibition than the standard dinucleotide m^7GpppG [1]: approximately 1.5 |
| Nc1nc2c(c(=O)[nH]1)[n+](Cc1ccccc1)cn2[C@@H]1O[C@H](COP(=O)([O-])O)[C@@H](O)[C@H]1O [compound 1, 7-benzylguanosine monophosphate] | – | – | – | – | – | inhibitory properties compared to m^7GMP (times better) [2]: 1.5 |
| Cn1c[n+]([C@@H]2O[C@H](COP(=O)(O)O)[C@@H](O)[C@H]2O)c2nc(N)[nH]c(=O)c21 [m^7GMP] | – | – | – | 19.2 ± 3.31 | > 50 | – |
| Cn1c[n+]([C@@H]2O[C@H](COP(=O)([O-])OP(=O)(O)OP(=O)(O)O)[C@@H](O)[C@H]2O)c2nc(N)[nH]c(=O)c21 [m^7GTP] | – | – | – | 1.09 ± 0.14 | 2.3 ± 0.2 | – |
| Cn1c[n+]([C@@H]2O[C@H](COP(=O)(O)OP(=O)([O-])OP(=O)(O)OC[C@H]3O[C@@H](n4cnc5c(=O)[nH]c(N)nc54)[C@H](O)[C@@H]3O)[C@@H](O)[C@H]2O)c2nc(N)[nH]c(=O)c21 [m^7GpppG] | – | – | – | 4.45 ± 0.61 | 8.6 ± 0.7 | – |
| (4-(diOCH3-bn)-tz-CH2)^2m^7GpppG | – | – | – | – | – | times more potent inhibition than the standard dinucleotide m^7GpppG [1]: ~6.9 |
